System: quadriceps muscle
Experiment: Proteomic analysis of quadriceps muscle of aged mice treated with 1-methyl-D-tryptophan (Table 1, TOPPGENE enrichment)
Type: in vivo
Experimental: Female mice 22 months of age were obtained from the National Institute on Aging and treated with saline (vehicle) or 1-methyl-D-tryptophan (1-MT, Sigma, 452483, lot#MKBZ1441V) at a low dose (10 mg/kg BW) or at a high dose (100 mg/kg BW). Mice were treated daily for 4 weeks. Treatments were administered i.p. with an injection volume of 0.2 ml following IACUC approved procedures. Mice were euthanized by CO2 overdose and muscles harvested for analysis. One quadriceps muscle was snap frozen for proteomics and the other quadriceps muscle fixed in buffered formalin for paraffin embedding and trichrome staining. The tibialis anterior was placed in PBS for amplex red assay.
The IDO inhibitor, 1-methyl-D-tryptophan, blocks kynurenine production and reduces levels of ROS in muscle.

Cn1cc(C[C@@H](N)C(=O)O)c2ccccc21 [1MT]
1MT vs Control: UTP--glucose-1-phosphate uridylyltransferase (Q91ZJ5, GN = Ugp2): 0.9036
1MT vs Control: Trifunctional enzyme subunit beta, mitochondrial (Q99JY0, GN = Hadhb): 0.7
1MT vs Control: Aconitate hydratase, mitochondrial (Q99KI0, GN = Aco2): 0.8406
1MT vs Control: Electron transfer flavoprotein subunit alpha, mitochondrial (Q99LC5, GN = Etfa): 0.8462
1MT vs Control: O-acetyl-ADP-ribose deacetylase MACROD1 (Q922B1, GN = Macrod1): 0.9167
1MT vs Control: Nucleoside diphosphate kinase B (Q01768, GN = Nme2): 0.9242
1MT vs Control: Transitional endoplasmic reticulum ATPase (Q01853, GN = Vcp): 0.904
1MT vs Control: Ubiquitin-like modifier-activating enzyme 1 (Q02053, GN = Uba1): 0.5833
1MT vs Control: Voltage-dependent L-type calcium channel subunit alpha-1S (Q02789, GN = Cacna1s): 0.7143
1MT vs Control: ATP synthase subunit alpha, mitochondrial (Q03265, GN = Atp5a1): 0.6273
1MT vs Control: Corticosteroid-binding globulin (Q06770, GN = Serpina6): 0.3125
1MT vs Control: Short-chain specific acyl-CoA dehydrogenase, mitochondrial (Q07417, GN = Acads): 0.6
1MT vs Control: Protein-arginine deiminase type-2 (Q08642, GN = Padi2): 0.3438
1MT vs Control: Puromycin-sensitive aminopeptidase (Q11011, GN = Npepps): 0.5
1MT vs Control: 2-oxoglutarate dehydrogenase, mitochondrial (Q60597, GN = Ogdh): 0.4671
1MT vs Control: Voltage-dependent anion-selective channel protein 3 (Q60931, GN = Vdac3): 0.2609
1MT vs Control: Voltage-dependent anion-selective channel protein 1 (Q60932, GN = Vdac1): 0.3333
1MT vs Control: Peroxiredoxin-2 (Q61171, GN = Prdx2): 0.7895
1MT vs Control: Hydroxyacyl-coenzyme A dehydrogenase, mitochondrial (Q61425, GN = Hadh): 0.6364
1MT vs Control: Alpha-2-macroglobulin (Q61838, GN = A2m): 0.6316
1MT vs Control: Striated muscle-specific serine/threonine-protein kinase (Q62407, GN = Speg): 0.6667
1MT vs Control: 10 kDa heat shock protein, mitochondrial (Q64433, GN = Hspe1): 0.4
1MT vs Control: Glycerol-3-phosphate dehydrogenase, mitochondrial (Q64521, GN = Gpd2): 0.3077
1MT vs Control: Trifunctional purine biosynthetic protein adenosine-3 (Q64737, GN = Gart): 0.8
1MT vs Control (protein A2AUC9 Kelch-like protein 41, GN=Klhl41): 1.077
1MT vs Control (protein O08539 Myc box-dependent-interacting protein 1, GN=Bin1): 1.064
1MT vs Control (protein O70209 PDZ and LIM domain protein 3, GN=Pdlim3): 1.412
1MT vs Control (protein P04117 Fatty acid-binding protein, adipocyte, GN=Fabp4): 1.1
1MT vs Control (protein P05064 Fructose-bisphosphate aldolase A, GN=Aldoa): 1.096
1MT vs Control (protein P05132 cAMP-dependent protein kinase catalytic subunit alpha, GN=Prkaca): 1
1MT vs Control (protein P07309 Transthyretin, GN=Ttr): 2.5
1MT vs Control (protein P07310 Creatine kinase M-type, GN=Ckm): 1.182
1MT vs Control (protein P07758 Alpha-1-antitrypsin 1-1, GN=Serpina1a): 1.091
1MT vs Control (protein P08228 Superoxide dismutase [Cu—Zn], GN=Sod1): 1.273
1MT vs Control (protein P09103 Protein disulfide-isomerase, GN=P4hb): 1.077
1MT vs Control (protein P09411 Phosphoglycerate kinase 1, GN=Pgk1): 1.089
1MT vs Control (protein P10637 Microtubule-associated protein tau, GN=Mapt): 3
1MT vs Control (protein P10649 Glutathione S-transferase Mu 1, GN=Gstm1): 1.152
1MT vs Control (protein P13412 Troponin I, fast skeletal muscle, GN=Tnni2): 1.5
1MT vs Control (protein P13707 Glycerol-3-phosphate dehydrogenase [NAD(+)], cytoplasmic, GN=Gpd1): 1.072
1MT vs Control (protein P14231 Sodium/potassium-transporting ATPase subunit beta-2, GN=Atp1b2): 1
1MT vs Control (protein P15626 Glutathione S-transferase Mu 2, GN=Gstm2): 1.111
1MT vs Control (protein P16858 Glyceraldehyde-3-phosphate dehydrogenase, GN=Gapdh): 1.167
1MT vs Control (protein P17182 Alpha-enolase, GN=Eno1): 1.039
1MT vs Control (protein P17742 Peptidyl-prolyl cis-trans isomerase A, GN=Ppia): 1.176
1MT vs Control (protein P17751 Triosephosphate isomerase, GN=Tpi1): 1.136
1MT vs Control (protein P18826 Phosphorylase b kinase regulatory subunit alpha, skeletal muscle isoform, GN=Phka1): 1.143
1MT vs Control (protein P20029 78 kDa glucose-regulated protein, GN=Hspa5): 1.522
1MT vs Control (protein P21550 Beta-enolase, GN=Eno3): 1.063
1MT vs Control (protein P22599 Alpha-1-antitrypsin 1-2, GN=Serpina1b): 1.028
1MT vs Control (protein P23506 Protein-L-isoaspartate(D-aspartate) O-methyltransferase, GN=Pcmt1): 1
1MT vs Control (protein P23953 Carboxylesterase 1C, GN=Ces1c): 1.08
1MT vs Control (protein P26043 Radixin, GN=Rdx): 1.267
1MT vs Control (protein P26883 Peptidyl-prolyl cis-trans isomerase FKBP1A, GN=Fkbp1a): 1.5
1MT vs Control (protein P27546 Microtubule-associated protein 4, GN=Map4): 3
1MT vs Control (protein P28474 Alcohol dehydrogenase class-3, GN=Adh5): 1.176
1MT vs Control (protein P28654 Decorin, GN=Dcn): 1.36
1MT vs Control (protein P29699 Alpha-2-HS-glycoprotein, GN=Ahsg): 1.111
1MT vs Control (protein P31001 Desmin, GN=Des): 1.133
1MT vs Control (protein P45376 Aldose reductase, GN=Akr1b1): 1.064
1MT vs Control (protein P45591 Cofilin-2, GN=Cfl2): 1
1MT vs Control (protein P47791 Glutathione reductase, mitochondrial, GN=Gsr): 1.25
1MT vs Control (protein P47857 ATP-dependent 6-phosphofructokinase, muscle type, GN=Pfkm): 1.013
1MT vs Control (protein P50396 Rab GDP dissociation inhibitor alpha, GN=Gdi1): 1.1875
1MT vs Control (protein P51885 Lumican, GN=Lum): 1.231
1MT vs Control (protein P58252 Elongation factor 2, GN=Eef2): 1.092
1MT vs Control (protein P62631 Elongation factor 1-alpha 2, GN=Eef1a2): 1.256
1MT vs Control (protein P62908 40S ribosomal protein S3, GN=Rps3): 1
1MT vs Control (protein P63005 Platelet-activating factor acetylhydrolase IB subunit alpha, GN=Pafah1b1): 1.25
1MT vs Control (protein P63017 Heat shock cognate 71 kDa protein, GN=Hspa8): 1.016
1MT vs Control (protein P68134 Actin, alpha skeletal muscle, GN=Acta1): 1.126
1MT vs Control (protein P70296 Phosphatidylethanolamine-binding protein 1, GN=Pebp1): 1.024
1MT vs Control (protein P70402 Myosin-binding protein H, GN=Mybph): 1.156
1MT vs Control (protein P82349 Beta-sarcoglycan, GN=Sgcb): 1
1MT vs Control (protein P97384 Annexin A11, GN=Anxa11): 1.375
1MT vs Control (protein Q3TJD7 PDZ and LIM domain protein 7, GN=Pdlim7): 1.111
1MT vs Control (protein Q3TVI8 Pre-B-cell leukemia transcription factor-interacting protein 1, GN=Pbxip1): 1
1MT vs Control (protein Q3TXS7 26S proteasome non-ATPase regulatory subunit 1, GN=Psmd1): 1.333
1MT vs Control (protein Q3U0V1 Far upstream element-binding protein 2, GN=Khsrp): 1
1MT vs Control (protein Q3UZA1 CapZ-interacting protein, GN=Rcsd1): 1.2
1MT vs Control (protein Q5SX39 Myosin-4, GN=Myh4): 1.106
1MT vs Control (protein Q7TSH2 Phosphorylase b kinase regulatory subunit beta, GN=Phkb): 1.083
1MT vs Control (protein Q8BGQ7 Alanine--tRNA ligase, cytoplasmic, GN=Aars): 1.5
1MT vs Control (protein Q8BU85 Methionine-R-sulfoxide reductase B3, mitochondrial, GN=Msrb3): 2.5
1MT vs Control (protein Q8C7E7 Starch-binding domain-containing protein 1, GN=Stbd1): 1
1MT vs Control (protein Q8CGC7 Bifunctional glutamate/proline--tRNA ligase, GN=Eprs): 1.333
1MT vs Control (protein Q8CHP8 Phosphoglycolate phosphatase, GN=Pgp): 1
1MT vs Control (protein Q8CHS7 Dehydrogenase/reductase SDR family member 7C, GN=Dhrs7c): 2.667
1MT vs Control (protein Q8CHT0 Delta-1-pyrroline-5-carboxylate dehydrogenase, mitochondrial, GN=Aldh4a1): 1
1MT vs Control (protein Q8K4Z3 NAD(P)H-hydrate epimerase, GN=Apoa1bp): 1
1MT vs Control (protein Q8R1G2 Carboxymethylenebutenolidase homolog, GN=Cmbl): 1.235
1MT vs Control (protein Q8VCM7 Fibrinogen gamma chain, GN=Fgg): 1.25
1MT vs Control (protein Q8VHX6 Filamin-C, GN=Flnc): 1.059
1MT vs Control (protein Q9CPU0 Lactoylglutathione lyase, GN=Glo1): 1.095
1MT vs Control (protein Q9CZ30 Obg-like ATPase 1, GN=Ola1): 3.25
1MT vs Control (protein Q9D7X3 Dual specificity protein phosphatase 3, GN=Dusp3): 1.5
1MT vs Control (protein Q9D8N0 Elongation factor 1-gamma, GN=Eef1g): 1.1
1MT vs Control (protein Q9D172 ES1 protein homolog, mitochondrial, GN=D10Jhu81e): 1.2
1MT vs Control (protein Q9ESD7 Dysferlin, GN=Dysf): 3
1MT vs Control (protein Q9ET78 Junctophilin-2, GN=Jph2): 1.381
1MT vs Control (protein Q9ET80 Junctophilin-1, GN=Jph1): 1.143
1MT vs Control (protein Q9JKB3 Y-box-binding protein 3, GN=Ybx3): 1.333
1MT vs Control (protein Q9JKS4 LIM domain-binding protein 3, GN=Ldb3): 1.037
1MT vs Control (protein Q9QYG0 Protein NDRG2, GN=Ndrg2): 1.015
1MT vs Control (protein Q9R0Y5 Adenylate kinase isoenzyme 1, GN=Ak1): 1.133
1MT vs Control (protein Q9R062 Glycogenin-1, GN=Gyg1): 1.538
1MT vs Control (protein Q9WUZ7 SH3 domain-binding glutamic acid-rich protein, GN=Sh3bgr): 1.057
1MT vs Control (protein Q9Z1Z2 Serine-threonine kinase receptor-associated protein, GN=Strap): 1.5
1MT vs Control (protein Q9Z2U0 Proteasome subunit alpha type-7, GN=Psma7): 3
1MT vs Control (protein Q70KF4 Cardiomyopathy-associated protein 5, GN=Cmya5): 1
1MT vs Control (protein Q76MZ3 Serine/threonine-protein phosphatase 2A 65 kDa regulatory subunit A alpha isoform, GN=Ppp2r1a): 1.125
1MT vs Control (protein Q91VI7 Ribonuclease inhibitor, GN=Rnh1): 1.111
1MT vs Control (protein Q91YE8 Synaptopodin-2, GN=Synpo2): 1.077
1MT vs Control (protein Q99LX0 Protein deglycase DJ-1, GN=Park7): 1.194
1MT vs Control (protein Q99PR8 Heat shock protein beta-2, GN=Hspb2): 1.5
1MT vs Control (protein Q924M7 Mannose-6-phosphate isomerase, GN=Mpi): 1.111
1MT vs Control (protein Q04857 Collagen alpha-1(VI) chain, GN=Col6a1): 1.5
1MT vs Control (protein Q60864 Stress-induced-phosphoprotein 1, GN=Stip1): 1.167
1MT vs Control (protein Q61292 Laminin subunit beta-2, GN=Lamb2): 1
1MT vs Control (protein Q61584 Fragile X mental retardation syndrome-related protein 1, GN=Fxr1): 1
1MT vs Control (protein Q62234 Myomesin-1, GN=Myom1): 1.113
1MT vs Control (protein Q62446 Peptidyl-prolyl cis-trans isomerase FKBP3, GN=Fkbp3): 1.429
1MT vs Control (protein Q64105 Sepiapterin reductase, GN=Spr): 1.5
1MT vs Control (protein Q64727 Vinculin, GN=Vcl): 1.333

— patent US20190224166A1, “Compositions and Methods for Treating Muscle Loss” (Augusta University Research Institute, Inc., priority 2018, published 2019)
